According to publication PMC8952208, “Synthesis, Antiplasmodial, and Antileukemia Activity of Dihydroartemisinin–HDAC Inhibitor Hybrids as Multitarget Drugs” (Pharmaceuticals, 2022):

Legend:
human HDAC1 (hHDAC1) = target: T1, human HDAC1 (hHDAC1) (Homo sapiens, UniProt Q13547); test: In vitro human HDAC1 assay (ZMAL substrate); type: biochemical
T1 construct: purchased BPS Bioscience Inc. 50051
Method: OptiPlate-96 black microplates (Perkin Elmer Inc., Waltham, MA, USA) were used with an assay volume of 50 µL. […] After an incubation time of 90 min, 50 µL of 0.4 mg/mL trypsin in trypsin buffer (50 mM Tris-HCl, pH 8.0, and 100 mM NaCl) was added, followed by further incubation at 37 °C for 30 min.

P. falciparum 3D7 = test: microbe, parasite or virus in culture; type: cell-based; conditions: Plasmodium falciparum, 3D7, 72 h; asexual blood stages, three days incubation; n ≥ 2 in duplicate, mean ± SD; read-out: Pf3D7 IC50
Method: (§1) [38, 39] […] After three days of incubation at 37 °C, 5% CO2 and 5% O2 plates were frozen until analyzed by HRP2-ELISA. All compounds were evaluated in duplicate in at least two independent experiments. The IC50 was determined by nonlinear regression analysis of log concentration-response curves using the drc-package v3.0.1 [40] of R v4.0.5..

P. falciparum Dd2 = test: microbe, parasite or virus in culture; type: cell-based; conditions: Plasmodium falciparum, DD2, 72 h, read-out: PfDd2 IC50
Method: as §1

P. falciparum Dd2 R539T = test: In vitro P. falciparum growth inhibition assay (HRP2), Dd2 R539T; type: cell-based; conditions: Plasmodium falciparum, DD2, 72 h, read-out: PfDd2 R539T IC50
Method: Antiplasmodial activity of DHA–HDACi hybrids was evaluated against the asexual stages of the laboratory P. falciparum strains (3D7, chloroquine-sensitive strain, and Dd2, chloroquine-resistant strain, and Dd2 R539T (MRA-1255), provided by BEI Resources carrying a kelch13-mutation that conveys partial artemisinin resistance), using the histidine-rich protein 2 (HRP2) assay, as previously described. In brief: 96-well plates were precoated with the tested compounds in a three-fold serial dilution before ring-stage parasites were added in complete culture medium at a hematocrit of 1.5% and a parasitaemia of 0.05%. After three days of incubation at 37 °C, 5% CO2 and 5% O2 plates were frozen until analyzed by HRP2-ELISA. All compounds were evaluated in duplicate in at least two independent experiments. The IC50 was determined by nonlinear regression analysis of log concentration-response curves using the drc-package v3.0.1 [40] of R v4.0.5..

A2780 cells = test: MTT cell viability assay; type: cell-based; conditions: Homo sapiens, 72 h, n ≥ 3 in triplicate, mean ± SD
Method: Reagents were obtained from PAN Biotech, Aidenbach Germany. The cell line was cultured at 37 °C under humidified air with 5% CO2 to a confluence of 80–90% before being used for further assays.
Intrinsic cytotoxicity of test compounds was determined by an MTT assay as previously described. A2780 cells were seeded in 96-well plates (Starlab GmbH, Hamburg, Germany) at a density of 20,000 cells/well and allowed to attach for 12 h. Cells were then treated with increasing concentrations of the test compounds. After 72 h, MTT (3-(4,5-dimethylthiazol-2-yl)-2,5-diphenyltetrazolium bromide) (BioChemica, Applichem GmbH, Darmstadt, Germany) solution (5 mg/mL in phosphate-buffered saline) was added to determine cell survival. The formazan dye was dissolved in DMSO (Sigma-Aldrich, Darmstadt, Germany) after 1 h. Absorbance was measured at 570 nm and 690 nm in a Multiskan microplate photometer (Thermo Fisher Scientific, Waltham, MA, USA). Concentration-response curves were generated using the four-parameter logistic equation (GraphPad Prism 9.0, San Diego, USA), and mean IC50 values were calculated in triplicates based on at least three different experiments.

K562 cells = test: CellTiter-Glo cell viability assay, K562; type: cell-based, human; conditions: for IC50: Homo sapiens, K562, CML, 72 h, CellTiter-Glo, n = 3; for Selectivity index range healthy fibroblasts vs K562: SI = (healthy fibroblast IC50)/(leukemia cell line IC50), range over two fibroblasts
Method: (§2) Healthy individually-derived fibroblasts were cultured in DMEM supplemented with 10% FCS. Regular cell line authentication was performed short tandem repeat (STR) analysis (DNA fingerprinting), followed by comparison with the original DSMZ cell line database.
(§3) Cell viability assay was performed with leukemic cell lines after 72 h incubation with the respective inhibitors using ATP-based CellTiter-Glo luminescent assay (Promega, Madison, WI, USA).

HL60 cells = test: CellTiter-Glo cell viability assay, HL60; type: cell-based, human; conditions: for IC50: Homo sapiens, HL-60, AML, 72 h, CellTiter-Glo, n = 3; for Selectivity index range healthy fibroblasts vs HL60: SI = (healthy fibroblast IC50)/(leukemia cell line IC50), range over two fibroblasts
Method: as §2, §3

NALM6 cells = test: CellTiter-Glo cell viability assay, NALM6; type: cell-based, human; conditions: for IC50: Homo sapiens, NALM-6, B-ALL, 72 h, CellTiter-Glo, n = 3; for Selectivity index range healthy fibroblasts vs NALM6: SI = (healthy fibroblast IC50)/(leukemia cell line IC50), range over two fibroblasts
Method: as §2, §3

MOLM13 cells = test: CellTiter-Glo cell viability assay, MOLM13; type: cell-based, human; conditions: for IC50: Homo sapiens, MOLM-13, AML, 72 h, CellTiter-Glo, n = 3; for Selectivity index range healthy fibroblasts vs MOLM13: SI = (healthy fibroblast IC50)/(leukemia cell line IC50), range over two fibroblasts
Method: as §2, §3

Healthy Fibroblast 1 = test: Cytotoxicity against healthy fibroblast 1; type: cell-based; conditions: Homo sapiens, healthy individually-derived fibroblasts
Method: as §2, §3

Healthy Fibroblast 2 = test: Cytotoxicity against healthy fibroblast 2; type: cell-based; conditions: Homo sapiens, healthy individually-derived fibroblasts
Method: as §2, §3

T1 sequence (Q13547 whole entry): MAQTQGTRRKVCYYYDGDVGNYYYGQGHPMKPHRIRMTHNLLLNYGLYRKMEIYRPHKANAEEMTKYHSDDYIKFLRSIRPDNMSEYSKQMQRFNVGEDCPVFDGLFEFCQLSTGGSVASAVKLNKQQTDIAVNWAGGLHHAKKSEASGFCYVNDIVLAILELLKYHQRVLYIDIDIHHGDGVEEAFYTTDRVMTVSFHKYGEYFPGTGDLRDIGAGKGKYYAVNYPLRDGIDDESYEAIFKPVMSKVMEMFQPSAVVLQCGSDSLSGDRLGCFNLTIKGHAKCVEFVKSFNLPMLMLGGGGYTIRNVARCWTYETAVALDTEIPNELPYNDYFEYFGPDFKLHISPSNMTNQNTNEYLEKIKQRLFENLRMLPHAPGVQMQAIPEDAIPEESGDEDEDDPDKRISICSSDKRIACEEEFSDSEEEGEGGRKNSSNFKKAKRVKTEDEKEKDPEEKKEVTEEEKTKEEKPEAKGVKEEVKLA

How did the IC50 (human HDAC1 (hHDAC1)) turn out when `C[C@H]1[C@@H](SCc2ccc(C(=O)NO)cc2)O[C@@H]2O[C@@]3(C)CC[C@H]4[C@H](C)CC[C@@H]1[C@@]24OO3` [(α)-7c, N-Hydroxy-4-((((3R,5aS,6R,8aS,9R,10R,12S,12aR)-3,6,9-trimethyldecahydro-12H-3,12-epoxy[1,2]dioxepino[4,3-i]isochromen-10-yl)thio)methyl)benzamide] was run?
Its IC50 is 2000 ± 200 nM.

What about the IC50 (P. falciparum 3D7) of the same compound?
The IC50 was 3.3 ± 1.4 nM.

What about the IC50 (P. falciparum Dd2) of the same compound?
Its IC50 is 3.4 ± 0.12 nM.

And the IC50 (P. falciparum Dd2 R539T)?
Its IC50 is 3.3 ± 2.2 nM.

What about the IC50 (A2780 cells) of the same compound?
Its IC50 is 1100 ± 250 nM.

And the IC50 (K562 cells)?
Its IC50 is 620 ± 60 nM.

What about the “Selectivity index range healthy fibroblasts vs K562” value (K562 cells) of the same compound?
The value was 12-21.

What about the IC50 (HL60 cells) of the same compound?
The IC50 was 1020 ± 270 nM.

What about the “Selectivity index range healthy fibroblasts vs HL60” value (HL60 cells) of the same compound?
The value was 7-12.

And the IC50 (NALM6 cells)?
Its IC50 is 280 ± 50 nM.

And the “Selectivity index range healthy fibroblasts vs NALM6” value (NALM6 cells)?
Its value is 27-45.

What about the IC50 (MOLM13 cells) of the same compound?
Its IC50 is 330 ± 110 nM.

What about the “Selectivity index range healthy fibroblasts vs MOLM13” value (MOLM13 cells) of the same compound?
The value was 23-39.

And the IC50 (Healthy Fibroblast 1)?
The IC50 was 12690 ± 120 nM.

What about the IC50 (Healthy Fibroblast 2) of the same compound?
Its IC50 is 7410 ± 1400 nM.

Which IC50 (human HDAC1 (hHDAC1)) does the source give for `C[C@H]1[C@H](SCc2ccc(C(=O)NO)cc2)O[C@@H]2O[C@@]3(C)CC[C@H]4[C@H](C)CC[C@@H]1[C@@]24OO3` [(β)-7c, N-Hydroxy-4-((((3R,5aS,6R,8aS,9R,10S,12S,12aR)-3,6,9-trimethyldecahydro-12H-3,12-epoxy[1,2]dioxepino[4,3-i]isochromen-10-yl)thio)methyl)benzamide] here?
The IC50 was 2790 ± 140 nM.

And the IC50 (P. falciparum 3D7)?
Its IC50 is 3.6 ± 1.1 nM.

And the IC50 (P. falciparum Dd2)?
Its IC50 is 3.2 ± 0.02 nM.

What about the IC50 (P. falciparum Dd2 R539T) of the same compound?
Its IC50 is 2.6 ± 2 nM.

And the IC50 (A2780 cells)?
Its IC50 is 880 ± 130 nM.

What about the IC50 (K562 cells) of the same compound?
The IC50 was 410 ± 110 nM.

What about the “Selectivity index range healthy fibroblasts vs K562” value (K562 cells) of the same compound?
The value was 36-43.

And the IC50 (HL60 cells)?
The IC50 was 2340 ± 460 nM.

And the “Selectivity index range healthy fibroblasts vs HL60” value (HL60 cells)?
The value was 6-8.

What about the IC50 (NALM6 cells) of the same compound?
The IC50 was 250 ± 10 nM.

And the “Selectivity index range healthy fibroblasts vs NALM6” value (NALM6 cells)?
Its value is 59-71.

What about the IC50 (MOLM13 cells) of the same compound?
Its IC50 is 380 ± 70 nM.

And the “Selectivity index range healthy fibroblasts vs MOLM13” value (MOLM13 cells)?
The value was 39-47.

And the IC50 (Healthy Fibroblast 1)?
Its IC50 is 14700 ± 3420 nM.

And the IC50 (Healthy Fibroblast 2)?
The IC50 was 17800 ± 6040 nM.

What does the source list for `C[C@@H]1CC[C@H]2[C@@H](C)C(OCc3ccc(/C=C/C(=O)NO)cc3)O[C@@H]3O[C@@]4(C)CC[C@@H]1[C@]32OO4` (stereo partly drawn) [Compound 7a, (E)-N-Hydroxy-3-(4-((((3R,5aS,6R,8aS,9R,12R,12aR)-3,6,9-trimethyldecahydro-12H-3,12-epoxy[1,2]dioxepino[4,3-i]isochromen-10-yl)oxy)methyl)phenyl)acrylamide]?
IC50 (human HDAC1 (hHDAC1)): 546 ± 0.3 nM; IC50 (P. falciparum 3D7): 2.6 ± 1.4 nM; IC50 (P. falciparum Dd2): 1.7 ± 0.92 nM; IC50 (P. falciparum Dd2 R539T): 1.9 ± 1.4 nM; IC50 (A2780 cells): 1950 ± 520 nM; IC50 (K562 cells): 310 ± 60 nM; Selectivity index range healthy fibroblasts vs K562 (K562 cells): 21-42; IC50 (HL60 cells): 1330 ± 140 nM; Selectivity index range healthy fibroblasts vs HL60 (HL60 cells): 5-10; IC50 (NALM6 cells): 150 ± 10 nM; Selectivity index range healthy fibroblasts vs NALM6 (NALM6 cells): 42-87; IC50 (MOLM13 cells): 220 ± 40 nM; Selectivity index range healthy fibroblasts vs MOLM13 (MOLM13 cells): 29-60; IC50 (Healthy Fibroblast 1): 13100 ± 100 nM; IC50 (Healthy Fibroblast 2): 6340 ± 790 nM

`C[C@H]1[C@@H](O)O[C@@H]2O[C@@]3(C)CC[C@H]4[C@H](C)CC[C@@H]1[C@@]24OO3` [DHA, dihydroartemisinin] was tested. Which IC50 (human HDAC1 (hHDAC1)) did it give?
The IC50 was greater than 10000 nM.

And the IC50 (P. falciparum 3D7)?
Its IC50 is 3 ± 2.7 nM.

What about the IC50 (P. falciparum Dd2) of the same compound?
Its IC50 is 1.8 ± 0.02 nM.

What about the IC50 (A2780 cells) of the same compound?
Its IC50 is 970 ± 70 nM.

And the IC50 (K562 cells)?
Its IC50 is 2400 ± 660 nM.

What about the IC50 (HL60 cells) of the same compound?
The IC50 was 3570 ± 1040 nM.

And the IC50 (NALM6 cells)?
Its IC50 is 2500 ± 160 nM.

And the IC50 (MOLM13 cells)?
Its IC50 is 690 ± 170 nM.

And the IC50 (Healthy Fibroblast 1)?
Its IC50 is greater than 25000 nM.

And the IC50 (Healthy Fibroblast 2)?
Its IC50 is greater than 25000 nM.
